Tests used:
[1] = molecular target: T1, EGFR L858R/T790M/C797S (BaF3-LTC cells) (Homo sapiens, UniProt P00533, C797S/L858R/T790M); assay: EGFR degradation HTRF assay, BaF3-LTC cells; type: cell-based; conditions: BaF3-LTC cells; for DC50: EGFR degradation, IC50 (DC50) from curve fit, read-out: DC50(nM) BaF3-LTC; for Dmax: read-out: Dmax (%) BaF3-LTC
T1 construct: expressed in transfected cells; host or cells: BaF3
In short: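 EGFR remaining after a 16 h, 37 °C exposure (8 doses, 5-fold steps from 10 uM final, 0.2% DMSO) was quantified by HTRF antibodies in cell lysate. Percent inhibition relative to DMSO control was fitted by four-parameter logistic to give DC50; Dmax denotes maximal degradation.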

[2] = tested on: EGFR Del19/T790M/C797S (H1975-clone #28); assay: EGFR degradation HTRF assay, H1975-clone #28 DTC cells; type: cell-based; conditions: H1975 # 28 DTC cells; for DC50: EGFR degradation, IC50 (DC50) from curve fit, read-out: DC50(nM) H1975 # 28 DTC; for Dmax (%) H1975 # 28 DTC: maximum percentage of inhibition (degradation)
In short: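 H1975 clones stably overexpressing mutant EGFR, with endogenous EGFR knocked out by sgRNA and homozygosity confirmed by sequencing, were treated 16h at 37° C. with compounds in 0.2% DMSO (top final 10 uM, 5-fold, 8 doses). Lysates were read by HTRF (665/620 nm); DC50 and Dmax came from fitting % degradation versus DMSO control.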

[3] = maximum percentage of inhibition (degradation)

T1 sequence (P00533 25-1210 T790M/C797S/L858R): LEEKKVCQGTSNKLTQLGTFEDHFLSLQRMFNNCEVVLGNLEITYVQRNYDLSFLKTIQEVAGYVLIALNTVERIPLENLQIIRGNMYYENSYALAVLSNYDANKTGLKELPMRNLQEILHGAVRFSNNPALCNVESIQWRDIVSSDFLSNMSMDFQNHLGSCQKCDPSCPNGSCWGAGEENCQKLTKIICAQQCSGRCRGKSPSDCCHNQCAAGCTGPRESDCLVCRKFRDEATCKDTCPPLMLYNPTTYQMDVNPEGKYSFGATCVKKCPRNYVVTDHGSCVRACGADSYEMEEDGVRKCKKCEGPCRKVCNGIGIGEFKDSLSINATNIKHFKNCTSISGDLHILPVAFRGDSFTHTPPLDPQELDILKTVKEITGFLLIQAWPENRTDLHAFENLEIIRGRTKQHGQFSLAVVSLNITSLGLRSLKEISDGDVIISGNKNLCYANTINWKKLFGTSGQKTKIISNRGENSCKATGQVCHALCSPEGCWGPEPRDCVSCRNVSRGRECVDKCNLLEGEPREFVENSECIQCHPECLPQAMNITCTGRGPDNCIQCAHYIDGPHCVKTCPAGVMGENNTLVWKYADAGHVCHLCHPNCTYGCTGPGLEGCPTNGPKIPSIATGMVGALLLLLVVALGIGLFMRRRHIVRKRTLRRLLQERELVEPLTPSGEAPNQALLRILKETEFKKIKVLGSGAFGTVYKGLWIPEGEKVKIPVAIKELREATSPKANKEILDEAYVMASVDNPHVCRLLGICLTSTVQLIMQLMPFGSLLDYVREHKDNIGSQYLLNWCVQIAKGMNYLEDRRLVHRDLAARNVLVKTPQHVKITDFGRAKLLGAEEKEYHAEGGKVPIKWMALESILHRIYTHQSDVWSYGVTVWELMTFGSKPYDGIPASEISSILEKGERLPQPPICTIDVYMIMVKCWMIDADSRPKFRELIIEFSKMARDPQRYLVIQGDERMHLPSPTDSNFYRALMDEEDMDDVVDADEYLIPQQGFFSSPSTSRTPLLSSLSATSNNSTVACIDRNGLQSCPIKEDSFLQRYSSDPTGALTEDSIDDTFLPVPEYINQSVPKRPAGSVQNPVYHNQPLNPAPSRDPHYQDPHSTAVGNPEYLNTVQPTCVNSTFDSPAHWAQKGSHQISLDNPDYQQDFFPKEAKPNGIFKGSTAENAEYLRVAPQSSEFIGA

Row | DC50 [1] | Dmax [1, 3] | DC50 [2] | Dmax (%) BaF3-LTC [1, 3] | Structure (SMILES) | Dmax (%) H1975 # 28 DTC [2]
1 | 17 nM | 85.5% | 0.818 nM |  | CCOc1cc(N2CCC(N3CCN(CCc4ccc(F)c5c4n(CC)c(=O)n5C4CCC(=O)NC4=O)CC3)CC2)c(CC)cc1Nc1ncc(Br)c(Nc2ccc3c(=O)n(CC)ncc3c2P(C)(C)=O)n1 (stereo not shown) [Example 594, 3-(4-(2-(4-(1-(4-((5-bromo-4-((5-(dimethylphosphoryl)-2-ethyl-1-oxo-1,2-dihydrophthalazin-6-yl)amino)pyrimidin-2-yl)amino)-5-ethoxy-2-ethylphenyl)piperidin-4-yl)piperazin-1-yl)ethyl)-3-ethyl-7-fluoro-2-oxo-2,3-dihydro-1H-benzo[d]imidazol-1-yl)piperidine-2,6-dione] | 85.75%
2 | 16.1 nM | 82% | 1.02 nM |  | CCOc1cc(N2CCC(N3CCN(CCc4c(F)ccc5c4oc(=O)n5C4CCC(=O)NC4=O)CC3)CC2)c(CC)cc1Nc1ncc(Br)c(Nc2cc(F)c3nc(CC)ccc3c2P(C)(C)=O)n1 (stereo not shown) [Example 595, 3-(7-(2-(4-(1-(4-((5-bromo-4-((5-(dimethylphosphoryl)-2-ethyl-8-fluoroquinolin-6-yl)amino)pyrimidin-2-yl)amino)-5-ethoxy-2-ethylphenyl)piperidin-4-yl)piperazin-1-yl)ethyl)-6-fluoro-2-oxobenzo[d]oxazol-3(2H)-yl)piperidine-2,6-dione] | 72.7%
3 | 6.56 nM |  | 0.937 nM | 91.42% | CCOc1cc(N2CCC(N3CCN(CCc4c(F)ccc5c4n(CC)c(=O)n5C4CCC(=O)NC4=O)CC3)CC2)c(CC)cc1Nc1ncc(Br)c(Nc2ccc3c(=O)n(CC)ncc3c2P(C)(C)=O)n1 (stereo not shown) [Example 596, 3-(4-(2-(4-(1-(4-((5-bromo-4-((5-(dimethylphosphoryl)-2-ethyl-1-oxo-1,2-dihydrophthalazin-6-yl)amino)pyrimidin-2-yl)amino)-5-ethoxy-2-ethylphenyl)piperidin-4-yl)piperazin-1-yl)ethyl)-3-ethyl-5-fluoro-2-oxo-2,3-dihydro-1H-benzo[d]imidazol-1-yl)piperidine-2,6-dione] | 84.17%
4 | 28.2 nM | 90.1% | 1.59 nM |  | CCOc1cc(N2CCC(N3CCN(CCCc4cc(OC)cc5c4oc(=O)n5C4CCC(=O)NC4=O)CC3)CC2)c(CC)cc1Nc1ncc(Br)c(Nc2ccc3nc(CC)ccc3c2P(C)(C)=O)n1 (stereo not shown) [Example 597, 3-(7-(3-(4-(1-(4-((5-bromo-4-((5-(dimethylphosphoryl)-2-ethylquinolin-6-yl)amino)pyrimidin-2-yl)amino)-5-ethoxy-2-ethylphenyl)piperidin-4-yl)piperazin-1-yl)propyl)-5-methoxy-2-oxobenzo[d]oxazol-3(2H)-yl)piperidine-2,6-dione] | 75.93%
5 | 18.8 nM | 88.4% | 1.64 nM |  | CCOc1cc(N2CCC(N3CCN(CCCc4cc(OC)cc5c4oc(=O)n5C4CCC(=O)NC4=O)CC3)CC2)c(CC)cc1Nc1ncc(Br)c(Nc2ccc3c(=O)n(CC)ncc3c2P(C)(C)=O)n1 (stereo not shown) [Example 598, 3-(7-(3-(4-(1-(4-((5-bromo-4-((5-(dimethylphosphoryl)-2-ethyl-1-oxo-1,2-dihydrophthalazin-6-yl)amino)pyrimidin-2-yl)amino)-5-ethoxy-2-ethylphenyl)piperidin-4-yl)piperazin-1-yl)propyl)-5-methoxy-2-oxobenzo[d]oxazol-3(2H)-yl)piperidine-2,6-dione] | 81.26%
6 | 25 nM | 73.9% | 1.91 nM |  | CCOc1cc(N2CCC(N3CCN(CCc4cc(Cl)cc5c4oc(=O)n5C4CCC(=O)NC4=O)CC3)CC2)c(CC)cc1Nc1ncc(Br)c(Nc2ccc3c(=O)n(CC)ncc3c2P(C)(C)=O)n1 (stereo not shown) [Example 599, 3-(7-(2-(4-(1-(4-((5-bromo-4-((5-(dimethylphosphoryl)-2-ethyl-1-oxo-1,2-dihydrophthalazin-6-yl)amino)pyrimidin-2-yl)amino)-5-ethoxy-2-ethylphenyl)piperidin-4-yl)piperazin-1-yl)ethyl)-5-chloro-2-oxobenzo[d]oxazol-3(2H)-yl)piperidine-2,6-dione] | 80.53%
7 | 4.11 nM | 87.4% | 1.18 nM |  | CCc1cc(Nc2ncc(Br)c(Nc3ccc4nc(C)ccc4c3P(C)(C)=O)n2)c(OC2CC2)cc1N1CCC(N2CCN(CC3CN(c4cccc5c4oc(=O)n5C4CCC(=O)NC4=O)C3)CC2)CC1 (stereo not shown) [Example 600, 3-(7-(3-((4-(1-(4-((5-bromo-4-((5-(dimethylphosphoryl)-2-methylquinolin-6-yl)amino)pyrimidin-2-yl)amino)-5-cyclopropoxy-2-ethylphenyl)piperidin-4-yl)piperazin-1-yl)methyl)azetidin-1-yl)-2-oxobenzo[d]oxazol-3(2H)-yl)piperidine-2,6-dione] | 83.32%
8 | 8.64 nM | 89.5% | 0.632 nM |  | CCc1cc(Nc2ncc(Br)c(Nc3ccc4nc(C)ccc4c3P(C)(C)=O)n2)c(OC2CC2)cc1N1CCC(N2CCN(CCc3cc4oc(=O)n(C5CCC(=O)NC5=O)c4cc3F)CC2)CC1 (stereo not shown) [Example 601, 3-(6-(2-(4-(1-(4-((5-bromo-4-((5-(dimethylphosphoryl)-2-methylquinolin-6-yl)amino)pyrimidin-2-yl)amino)-5-cyclopropoxy-2-ethylphenyl)piperidin-4-yl)piperazin-1-yl)ethyl)-5-fluoro-2-oxobenzo[d]oxazol-3(2H)-yl)piperidine-2,6-dione] | 77.35%
9 | 3.66 nM | 93% | 0.913 nM |  | Cc1ccc2c(P(C)(C)=O)c(Nc3nc(Nc4cc(C)c(N5CCC(N6CCN(CCc7cccc8c7n(C)c(=O)n8C7CCC(=O)NC7=O)CC6)CC5)cc4OC4CC4)ncc3Br)ccc2n1 (stereo not shown) [Example 602, 3-(4-(2-(4-(1-(4-((5-bromo-4-((5-(dimethylphosphoryl)-2-methylquinolin-6-yl)amino)pyrimidin-2-yl)amino)-5-cyclopropoxy-2-methylphenyl)piperidin-4-yl)piperazin-1-yl)ethyl)-3-methyl-2-oxo-2,3-dihydro-1H-benzo[d]imidazol-1-yl)piperidine-2,6-dione] | 77.98%
10 | 7.62 nM | 91.2% | 1.57 nM |  | CCOc1cc(N2CCC(N3CCN(CCc4ccc(F)c5c4n(CC)c(=O)n5C4CCC(=O)NC4=O)CC3)CC2)c(CC)cc1Nc1ncc(Br)c(Nc2cc(F)c3nc(CC)ccc3c2P(C)(C)=O)n1 (stereo not shown) [Example 603, 3-(4-(2-(4-(1-(4-((5-bromo-4-((5-(dimethylphosphoryl)-2-ethyl-8-fluoroquinolin-6-yl)amino)pyrimidin-2-yl)amino)-5-ethoxy-2-ethylphenyl)piperidin-4-yl)piperazin-1-yl)ethyl)-3-ethyl-7-fluoro-2-oxo-2,3-dihydro-1H-benzo[d]imidazol-1-yl)piperidine-2,6-dione] | 81.2%
